The results in this text go back to patent publication US10793557B2, “Sting agonist compounds” (Merck Sharp & Dohme Corp., priority 2018, dated 2020).

For one test, the target named is T1, full-length WT STING (Homo sapiens, UniProt Q86WV6, H232R).
T1 construct: AviTag (after gg linker) (C); HRV3C cleavage site (after gs linker) (C); HIS8 (C); made in house; host or cells: Trichoplusia ni (Hi-Five) insect cells infected with baculovirus (virus generated and amplified in Sf21 cells); used as a washed membrane preparation
T1 sequence (Q86WV6 with tags, fused parts or gaps H232R): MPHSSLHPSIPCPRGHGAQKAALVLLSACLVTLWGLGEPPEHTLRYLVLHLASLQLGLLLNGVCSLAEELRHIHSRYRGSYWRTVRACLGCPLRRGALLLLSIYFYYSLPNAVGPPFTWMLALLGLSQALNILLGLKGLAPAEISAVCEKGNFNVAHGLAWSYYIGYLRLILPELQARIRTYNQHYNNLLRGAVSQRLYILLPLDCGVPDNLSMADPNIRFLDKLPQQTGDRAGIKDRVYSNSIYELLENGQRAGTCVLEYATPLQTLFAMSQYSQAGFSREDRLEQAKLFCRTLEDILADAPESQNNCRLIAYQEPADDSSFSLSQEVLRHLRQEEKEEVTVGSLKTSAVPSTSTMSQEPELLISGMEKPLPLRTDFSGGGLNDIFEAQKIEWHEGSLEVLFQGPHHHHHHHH
Briefly: 3H-cGAMP filtration binding assay (WT STING). Conditions: for EC50: competition with tritiated cGAMP, WT STING membrane. The essentials:
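Competitive filtration binding of [3H]cGAMP (16 nM working stock) to T. ni membranes overexpressing full-length WT human STING, 60 min at RT in PBS. Bound radioactivity counted after GF/B filtration; 10-point 1:3 titration, EC50 from 4-parameter fit after control normalisation.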

Another test concerns the target T2, full-length HAQ STING (Homo sapiens, UniProt Q86WV6, G230A/H232R/R293Q/R71H).
T2 construct: AviTag (after GG linker) (C); HRV3C cleavage site (after GS linker) (C); HIS8 (C); made in house; host or cells: Trichoplusia ni (Hi-Five) insect cells infected with baculovirus (virus generated and amplified in Sf21 cells); used as a washed membrane preparation
Briefly: 3H-cGAMP filtration binding assay (HAQ STING). The following applies: competition with tritiated cGAMP, HAQ STING membrane. The essentials: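 Hi-Five (T. ni) membranes overexpressing the STING variant (2.2 ug/ml working) preincubated with compound 60 min at RT in PBS, then [3H]cGAMP (8 nM working stock) added for 60 min at RT. Bound radioactivity captured on GF/B filters and counted by scintillation; EC50 from 4-parameter fit of control-normalized activity.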

Test [1] concerns secretion of interferon-beta from THP1 cells. The test is described as follows: IFN-β secretion in THP1 cell culture (5 h). Format: cell-based. Conditions: Homo sapiens, THP-1, 5 h, 30 uM cGAMP = 100%; for activation at 3 µM: compound at 3 uM, read-out: % Effect relative to 2′3′-cGAMP (@ 3 uM); for activation at 30 µM: compound at 30 μM, read-out: % Effect at 30 μM relative to 2′3′-cGAMP. The essentials:
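Thawed THP1 cells (0.8×10^6/mL, RPMI with 0.5% FBS) exposed to compounds 1.5–30000 nM (0.3% DMSO) for 5 h at 37 °C. Supernatant IFN-β quantified by AlphaLISA. Percent effect normalised to 30 uM cGAMP and DMSO controls; EC50 from 4-parameter fit.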

T2 sequence (Q86WV6 with tags, fused parts or gaps R71H/G230A/H232R/R293Q): as the sequence (Q86WV6 with tags, fused parts or gaps H232R) above, with R71H, G230A, R293Q counted along it

`COc1cc2sc(CC[C@H](C)C(=O)O)cc2c(Cl)c1OCCOc1c(OC)cc2sc(C(=O)C[C@H](C)C(=O)O)cc2c1Cl` [Example 154, (S)-4-(5-(2-((2-((S)-3-carboxybutyl)-4-chloro-6-methoxybenzo[b]thiophen-5-yl)oxy)ethoxy)-4-chloro-6-methoxybenzo[b]thiophen-2-yl)-2-methyl-4-oxobutanoic acid] displayed an inhibition at 2 µM at full-length WT STING (at 2,000 nM compound) of 30%. The EC50 at full-length HAQ STING was 694 nM. Further, in test [1], the activation at 3 µM was 76%.
Take `COc1cc2sc(C(=O)C[C@H](C)C(=O)O)cc2cc1OCCCOc1c(OC)cc2sc(C(=O)C[C@H](C)C(=O)O)cc2c1Cl` [Example 155, (S)-4-(5-(3-((2-((S)-3-carboxybutanoyl)-4-chloro-6-methoxybenzo[b]thiophen-5-yl)oxy)propoxy)-6-methoxybenzo[b]thiophen-2-yl)-2-methyl-4-oxobutanoic acid]: the EC50 came to 5 nM on full-length WT STING and 3 nM at full-length HAQ STING. In addition, the activation at 3 µM in test [1] was 129%.
On to `COc1cc2sc(C(=O)C[C@H](C)C(=O)O)cc2c(F)c1OCCCOc1c(OC)cc2sc(C(=O)C[C@H](C)C(=O)O)cc2c1F` [Example 156, (2S,2′S)-4,4′-((propane-1,3-diylbis(oxy))bis(4-fluoro-6-methoxybenzo[b]thiophene-5,2-diyl))bis(2-methyl-4-oxobutanoic acid)], for which the EC50 at full-length WT STING and at full-length HAQ STING was 1 nM each time. The activation at 3 µM in test [1] stood at 118%.
As to `CNc1cc2sc(C(=O)C[C@H](C)C(=O)O)cc2cc1OCCCOc1c(OC)cc2sc(C(=O)C[C@H](C)C(=O)O)cc2c1F` [Example 157, (S)-4-(5-(3-((2-((S)-3-carboxybutanoyl)-4-fluoro-6-methoxybenzo[b]thiophen-5-yl)oxy)propoxy)-6-(methylamino)benzo[b]thiophen-2-yl)-2-methyl-4-oxobutanoic acid], the concentration giving a half-maximal response (EC50) on full-length WT STING and at full-length HAQ STING was 1 nM throughout. Besides, the activation at 3 µM in test [1] was 63%.
`COc1cc2sc(CC[C@H](C)C(=O)O)cc2cc1OCCCOc1c(OC)cc2sc(C(=O)C[C@H](C)C(=O)O)cc2c1F` [Example 158, (S)-4-(5-(3-((2-((S)-3-carboxybutyl)-6-methoxybenzo[b]thiophen-5-yl)oxy)propoxy)-4-fluoro-6-methoxybenzo[b]thiophen-2-yl)-2-methyl-4-oxobutanoic acid]: the EC50 at full-length WT STING came to 32 nM; on full-length HAQ STING, 2 nM. Also, in test [1], the activation at 30 µM was determined as 43%.
Taken in the same sequence, the figures for `COc1cc2sc(C(=O)C[C@H](C)C(=O)O)cc2nc1OCCCc1c(OC)cc2sc(C(=O)C[C@H](C)C(=O)O)cc2c1F` [Example 159, (S)-4-(5-(3-(2-((S)-3-carboxybutanoyl)-4-fluoro-6-methoxybenzo[b]thiophen-5-yl)propoxy)-6-methoxythieno[3,2-b]pyridin-2-yl)-2-methyl-4-oxobutanoic acid] were 3 nM, 3 nM and 99%.
Take `COc1cc2sc(C(=O)C[C@H](C)C(=O)O)cc2cc1OCC(C)COc1cc2cc(C(=O)C[C@H](C)C(=O)O)sc2cc1OC` [Example 160, (2S,2′S)-4,4′-(((2-methylpropane-1,3-diyl)bis(oxy))bis(6-methoxybenzo[b]thiophene-5,2-diyl))bis(2-methyl-4-oxobutanoic acid)]: the half-maximal effective concentration (EC50) at full-length WT STING was found to be 6 nM; at full-length HAQ STING, 1 nM. In test [1], the activation at 30 µM came out at 18%.
Taken in the same sequence, the figures for `COc1cc2sc(C(=O)CCC(=O)O)cc2cc1OCCCc1c(OC)cc2sc(C(=O)C[C@H](C)C(=O)O)cc2c1F` [Example 161, (S)-4-(5-(3-((2-(3-carboxypropanoyl)-6-methoxybenzo[b]thiophen-5-yl)oxy)propyl)-4-fluoro-6-methoxybenzo[b]thiophen-2-yl)-2-methyl-4-oxobutanoic acid] were 4 nM, 1 nM and 106%.
Taken in the same sequence, the figures for `COc1cc2sc(C(=O)C[C@H](C)C(=O)O)cc2cc1OCCCc1c(OC)cc2sc(C(=O)C[C@H](C)C(=O)O)cc2c1F` [Example 162, (S)-4-(5-(3-(2-((S)-3-carboxybutanoyl)-4-fluoro-6-methoxybenzo[b]thiophen-5-yl)propoxy)-6-methoxybenzo[b]thiophen-2-yl)-2-methyl-4-oxobutanoic acid] were 4 nM, 1 nM and 98%.
On the same counts, the results for `COc1cc2sc(C(=O)C[C@H](C)C(=O)O)cc2c(F)c1CCCOc1c(OC)cc2sc(C(=O)CCC(=O)O)cc2c1F` [Example 163, (S)-4-(5-(3-((2-(3-carboxypropanoyl)-4-fluoro-6-methoxybenzo[b]thiophen-5-yl)oxy)propyl)-4-fluoro-6-methoxybenzo[b]thiophen-2-yl)-2-methyl-4-oxobutanoic acid] are 1 nM, 1 nM and 135%.
`COc1cc2sc(C(=O)C[C@H](C)C(=O)O)cc2c(F)c1CCCOc1c(OC)cc2sc(C(=O)C[C@H](C)C(=O)O)cc2c1F` [Example 164, (S)-4-(5-(3-((2-((S)-3-carboxybutanoyl)-4-fluoro-6-methoxybenzo[b]thiophen-5-yl)oxy)propyl)-4-fluoro-6-methoxybenzo[b]thiophen-2-yl)-2-methyl-4-oxobutanoic acid]: the EC50 on full-length WT STING and at full-length HAQ STING was 1 nM throughout. For the same compound, the activation at 30 µM in test [1] is 131%.
As for `COc1cc2sc(C(=O)CC(C)(C)C(=O)O)cc2c(F)c1OCCCOc1c(OC)cc2sc(C(=O)CC(C)(C)C(=O)O)cc2c1F` [Example 165, 4,4′-((propane-1,3-diylbis(oxy))bis(4-fluoro-6-methoxybenzo[b]thiophene-5,2-diyl))bis(2,2-dimethyl-4-oxobutanoic acid)], the values for the concentration for a half-maximal effect (EC50) at full-length WT STING and on full-length HAQ STING were 3 nM and 2 nM, respectively. In addition, in test [1], the activation at 30 µM turned out to be 21%.
Taken in the same sequence, the figures for `COc1cc2sc(C(=O)C[C@H](C)C(=O)O)cc2cc1OCCCOc1cc2sc(C(=O)C[C@H](C)C(=O)O)cc2nc1OC` [Example 166, (S)-4-(5-(3-((2-((S)-3-carboxybutanoyl)-5-methoxythieno[3,2-b]pyridin-6-yl)oxy)propoxy)-6-methoxybenzo[b]thiophen-2-yl)-2-methyl-4-oxobutanoic acid] were 117 nM, 8 nM and 34%.
Taken in the same sequence, the figures for `COc1cc2sc(C(=O)C[C@H](C)C(=O)O)cc2c(F)c1OCCCOc1cc2sc(C(=O)C[C@H](C)C(=O)O)cc2nc1OC` [Example 167, (S)-4-(6-(3-((2-((S)-3-carboxybutanoyl)-4-fluoro-6-methoxybenzo[b]thiophen-5-yl)oxy)propoxy)-5-methoxythieno[3,2-b]pyridin-2-yl)-2-methyl-4-oxobutanoic acid] were 19 nM, 4 nM and 66%.
Taken in the same sequence, the figures for `COc1cc2sc(C(=O)CCC(=O)O)cc2c(F)c1OCCCOc1cc2sc(C(=O)C[C@H](C)C(=O)O)cc2nc1OC` [Example 168, (S)-4-(6-(3-((2-(3-carboxypropanoyl)-4-fluoro-6-methoxybenzo[b]thiophen-5-yl)oxy)propoxy)-5-methoxythieno[3,2-b]pyridin-2-yl)-2-methyl-4-oxobutanoic acid] were 199 nM, 13 nM and 102%.
For `COc1cc2sc(C(=O)C[C@H](C)C(=O)O)cc2cc1OCCCOc1c(OC)cc2sc(CC[C@H](C)C(=O)O)cc2c1F` [Example 169, (S)-4-(5-(3-((2-((S)-3-carboxybutyl)-4-fluoro-6-methoxybenzo[b]thiophen-5-yl)oxy)propoxy)-6-methoxybenzo[b]thiophen-2-yl)-2-methyl-4-oxobutanoic acid], the EC50 stood at 18 nM on full-length WT STING and 1 nM at full-length HAQ STING. For the same compound, the activation at 30 µM in test [1] turned out to be 64%.
Taken in the same sequence, the figures for `COc1cc2sc(C(=O)C[C@H](C)C(=O)O)cc2cc1OCCCOc1c(OC)cc2sc(C(=O)[C@@H]3CC[C@H]3C(=O)O)cc2c1F` [Example 170, trans-2-(5-(3-((2-((S)-3-carboxybutanoyl)-6-methoxybenzo[b]thiophen-5-yl)oxy)propoxy)-4-fluoro-6-methoxybenzo[b]thiophene-2-carbonyl)cyclobutanecarboxylic acid] were 3 nM, 1 nM and 86%.

For orientation: inhibition means the drop in the measured response relative to a control, in per cent. Read a low inhibition as a response near the control. By EC50 is commonly meant the concentration giving half of the maximal effect. A low value points to greater potency.
